The source of these data is patent US11136317B2, “NADPH oxidase 4 inhibitors” (ACTELION PHARMACEUTICALS LTD, priority 2015, dated 2021).

SMILES strings stand for the structures.

In the assay the target is T1, human NOX4 (Homo sapiens, UniProt Q9NPH5).
T1 construct: The full-length human NOX4 (NM_016931.3) transcript was cloned; expressed in transfected cells
T1 sequence (Q9NPH5 1-578): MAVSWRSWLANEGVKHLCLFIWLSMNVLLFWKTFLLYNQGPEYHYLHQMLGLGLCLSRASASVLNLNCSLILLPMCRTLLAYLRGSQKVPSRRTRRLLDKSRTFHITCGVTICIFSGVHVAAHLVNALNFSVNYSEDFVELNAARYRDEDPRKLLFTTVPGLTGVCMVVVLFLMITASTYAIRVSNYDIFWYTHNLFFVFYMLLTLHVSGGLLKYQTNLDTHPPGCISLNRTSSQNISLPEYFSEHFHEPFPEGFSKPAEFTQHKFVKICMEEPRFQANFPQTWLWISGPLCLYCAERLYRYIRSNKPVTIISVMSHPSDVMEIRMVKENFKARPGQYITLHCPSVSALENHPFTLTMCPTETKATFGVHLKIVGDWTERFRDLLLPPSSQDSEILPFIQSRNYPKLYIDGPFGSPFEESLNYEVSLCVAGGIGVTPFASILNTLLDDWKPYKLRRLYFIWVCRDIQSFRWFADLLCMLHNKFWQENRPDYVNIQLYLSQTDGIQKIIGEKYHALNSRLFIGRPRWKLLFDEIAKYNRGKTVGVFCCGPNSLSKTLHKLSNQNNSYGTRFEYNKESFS
T1 sequence (P13498 1-195 partner): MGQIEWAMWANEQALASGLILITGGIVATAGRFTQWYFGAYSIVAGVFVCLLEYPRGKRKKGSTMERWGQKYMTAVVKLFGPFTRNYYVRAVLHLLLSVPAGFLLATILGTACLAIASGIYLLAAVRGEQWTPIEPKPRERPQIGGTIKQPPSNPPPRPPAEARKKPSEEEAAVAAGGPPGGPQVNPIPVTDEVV
Briefly: Amplex Red activity assay (cellular H2O2 formation in hNOX4 T-REx-293 cells). The format is cell-based. The following applies: tet-induced 24 h, extracellular H2O2 by Amplex Red, 60 min 25° C., geometric mean if determined several times. In short, it runs like this:
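Tet-induced (1 μg/mL, 24 h) HEK293 T-REx cells stably expressing full-length human NOX4, 20 000 cells/well, exposed to compounds (10 concentrations, 50 μM to 100 nM; 1.25% DMSO) for 60 min at 25°C. Extracellular H2O2 detected by Amplex Red resorufin fluorescence (ex 550/em 600 nm) versus vehicle; IC50 calculated.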
For the compound `O=C(Nc1ccc2c(c1)CCO2)c1ccc2oc(N3CCOCC3)nc2c1` [Example 77, 2-Morpholin-4-yl-benzooxazole-5-carboxylic acid (2,3-dihydro-benzofuran-5-yl)-amide], the IC50 amounted to 548 nM.

`CCN(CC)c1nc2cc(C(=O)Nc3ccc4c(c3)CCO4)ccc2o1` [Example 78, 2-Diethylamino-benzooxazole-5-carboxylic acid (2,3-dihydro-benzofuran-5-yl)-amide]: the IC50 is 417 nM.

`O=C(Nc1ccc2c(c1)CCO2)c1ccc2oc(N3CCCC3)nc2c1` [Example 79, 2-Pyrrolidin-1-yl-benzooxazole-5-carboxylic acid (2,3-dihydro-benzofuran-5-yl)-amide]: the IC50 turned out to be 585 nM.

In the case of `O=C(Nc1ccc2sc(N3CCCCC3)nc2c1)c1ccc2c(c1)CCO2` [Example 81, 2,3-Dihydro-benzofuran-5-carboxylic acid (2-piperidin-1-yl-benzothiazol-5-yl)-amide], the IC50 was found to be 2450 nM.

For `O=C(Nc1ccc2sc(N3CCOCC3)nc2c1)c1ccc2c(c1)CCO2` [Example 82, 2,3-Dihydro-benzofuran-5-carboxylic acid (2-morpholin-4-yl-benzothiazol-5-yl)-amide], the IC50 came to 2350 nM.

Turning to `CN1CCN(c2nc3cc(NC(=O)c4ccc5c(c4)CCO5)ccc3s2)CC1` [Example 83, 2,3-Dihydro-benzofuran-5-carboxylic acid [2-(4-methyl-piperazin-1-yl)-benzothiazol-5-yl]-amide], the IC50 was determined as 3540 nM.

In the case of `O=C(Nc1ccc2sc(N3CCCC3)nc2c1)c1ccc2c(c1)CCO2` [Example 84, 2,3-Dihydro-benzofuran-5-carboxylic acid (2-pyrrolidin-1-yl-benzothiazol-5-yl)-amide], the concentration for half-maximal inhibition (IC50) was determined as 1320 nM.

For `CCN(CC)c1nc2cc(NC(=O)c3ccc4c(c3)CCO4)ccc2s1` [Example 85, 2,3-Dihydro-benzofuran-5-carboxylic acid (2-diethylamino-benzothiazol-5-yl)-amide], the IC50 was found to be 1650 nM.

`O=C(Nc1ccc2sc(N3CC(F)(F)C3)nc2c1)c1ccc2c(c1)CCO2` [Example 87, 2,3-Dihydro-benzofuran-5-carboxylic acid [2-(3,3-difluoro-azetidin-1-yl)-benzothiazol-5-yl]-amide]: the IC50 worked out at 4100 nM.

On to `O=C(Nc1ccc2sc(N3CCC(F)(F)C3)nc2c1)c1ccc2c(c1)CCO2` [Example 88, 2,3-Dihydro-benzofuran-5-carboxylic acid [2-(3,3-difluoro-pyrrolidin-1-yl)-benzothiazol-5-yl]-amide], for which the IC50 was determined as 3660 nM.

With `O=C(Nc1ccc2sc(N3CCCC(F)(F)C3)nc2c1)c1ccc2c(c1)CCO2` [Example 89, 2,3-Dihydro-benzofuran-5-carboxylic acid [2-(3,3-difluoro-piperidin-1-yl)-benzothiazol-5-yl]-amide], the concentration for half-maximal inhibition (IC50) came to 1920 nM.

As to `O=C(Nc1ccc2sc(N3CCC34COC4)nc2c1)c1ccc2c(c1)CCO2` [Example 90, 2,3-Dihydro-benzofuran-5-carboxylic acid [2-(6-oxa-1-aza-spiro[3.3]hept-1-yl)-benzothiazol-5-yl]-amide], the IC50 is 361 nM.

On to `O=C(Nc1ccc2sc(N3CC4(COC4)C3)nc2c1)c1ccc2c(c1)CCO2` [Example 91, 2,3-Dihydro-benzofuran-5-carboxylic acid [2-(2-oxa-6-aza-spiro[3.3]hept-6-yl)-benzothiazol-5-yl]-amide], for which the IC50 is 4330 nM.

As to `O=C(Nc1ccc2sc(N3CCS(=O)(=O)CC3)nc2c1)c1ccc2c(c1)CCO2` [Example 92, 2,3-Dihydro-benzofuran-5-carboxylic acid [2-(1,1-dioxo-1l6-thiomorpholin-4-yl)-benzothiazol-5-yl]-amide], the IC50 stood at 2460 nM.

For `CN(C)CCN(C)c1nc2cc(NC(=O)c3ccc4c(c3)CCO4)ccc2s1` [Example 93, 2,3-Dihydro-benzofuran-5-carboxylic acid {2-[(2-dimethylamino-ethyl)-methyl-amino]-benzothiazol-5-yl}-amide], the half-maximal inhibitory concentration (IC50) worked out at 10300 nM.

Consider `COC1CCN(c2nc3cc(NC(=O)c4ccc5c(c4)CCO5)ccc3s2)C1` (stereo not shown) [Example 94, 2,3-Dihydro-benzofuran-5-carboxylic acid [2-(3-methoxy-pyrrolidin-1-yl)-benzothiazol-5-yl]-amide], for which the IC50 is 3290 nM.

Take `COC1CCN(c2nc3cc(NC(=O)c4ccc5c(c4)CCO5)ccc3s2)CC1` [Example 95, 2,3-Dihydro-benzofuran-5-carboxylic acid [2-(4-methoxy-piperidin-1-yl)-benzothiazol-5-yl]-amide]: the IC50 came to 2140 nM.

On to `CC1(O)CN(c2nc3cc(NC(=O)c4ccc5c(c4)CCO5)ccc3s2)C1` [Example 96, 2,3-Dihydro-benzofuran-5-carboxylic acid [2-(3-hydroxy-3-methyl-azetidin-1-yl)-benzothiazol-5-yl]-amide], for which the IC50 was 2670 nM.

For the compound `CN(C)C1CCN(c2nc3cc(NC(=O)c4ccc5c(c4)CCO5)ccc3s2)CC1` [Example 97, 2,3-Dihydro-benzofuran-5-carboxylic acid [2-(4-dimethylamino-piperidin-1-yl)-benzothiazol-5-yl]-amide], the IC50 turned out to be 6300 nM.

For `O=C(Nc1ccc2sc(N3CC[C@H](O)C3)nc2c1)c1ccc2c(c1)CCO2` [Example 98, (S)—N-(2-(3-hydroxypyrrolidin-1-yl)benzo[d]thiazol-5-yl)-2,3-dihydrobenzofuran-5-carboxamide], the IC50 worked out at 2530 nM.

Take `O=C(Nc1ccc2sc(N3CCC4(CC3)COC4)nc2c1)c1ccc2c(c1)CCO2` [Example 99, 2,3-Dihydro-benzofuran-5-carboxylic acid [2-(2-oxa-7-aza-spiro[3.5]non-7-yl)-benzothiazol-5-yl]-amide]: the 50% inhibitory concentration (IC50) is 3080 nM.

On to `CN(c1nc2cc(NC(=O)c3ccc4c(c3)CCO4)ccc2s1)C1CCN(C2COC2)CC1` [Example 100, 2,3-Dihydro-benzofuran-5-carboxylic acid {2-[methyl-(1-oxetan-3-yl-piperidin-4-yl)-amino]-benzothiazol-5-yl}-amide], for which the IC50 came out at 3390 nM.

Regarding `O=C(Nc1ccc2sc(N3CCCC4(COC4)C3)nc2c1)c1ccc2c(c1)CCO2` [Example 101, 2,3-Dihydro-benzofuran-5-carboxylic acid [2-(2-oxa-6-aza-spiro[3.5]non-6-yl)-benzothiazol-5-yl]-amide], the IC50 amounted to 2370 nM.

Turning to `O=C(Nc1ccc2sc(N3CCN(C4COC4)CC3)nc2c1)c1ccc2c(c1)CCO2` [Example 102, 2,3-Dihydro-benzofuran-5-carboxylic acid [2-(4-oxetan-3-yl-piperazin-1-yl)-benzothiazol-5-yl]-amide], the IC50 amounted to 9170 nM.

Turning to `CN(c1nc2cc(NC(=O)c3ccc4c(c3)CCO4)ccc2s1)C1COC1` [Example 103, 2,3-Dihydro-benzofuran-5-carboxylic acid [2-(methyl-oxetan-3-yl-amino)-benzothiazol-5-yl]-amide], the IC50 was determined as 3210 nM.

`O=C(Nc1ccc2sc(N3CC4(CCO4)C3)nc2c1)c1ccc2c(c1)CCO2` [Example 104, 2,3-Dihydro-benzofuran-5-carboxylic acid [2-(1-oxa-6-aza-spiro[3.3]hept-6-yl)-benzothiazol-5-yl]-amide]: the IC50 was determined as 6870 nM.

As for `CN(C)CC1CCN(c2nc3cc(NC(=O)c4ccc5c(c4)CCO5)ccc3s2)C1` (stereo not shown) [Example 105, 2,3-Dihydro-benzofuran-5-carboxylic acid [2-(3-dimethylaminomethyl-pyrrolidin-1-yl)-benzothiazol-5-yl]-amide], the IC50 worked out at 14800 nM.

As to `CC(C)OC1CN(c2nc3cc(NC(=O)c4ccc5c(c4)CCO5)ccc3s2)C1` [Example 106, 2,3-Dihydro-benzofuran-5-carboxylic acid [2-(3-isopropoxy-azetidin-1-yl)-benzothiazol-5-yl]-amide], the IC50 came to 9390 nM.

For `CCOCC1CCCN1c1nc2cc(NC(=O)c3ccc4c(c3)CCO4)ccc2s1` (stereo not shown) [Example 107, 2,3-Dihydro-benzofuran-5-carboxylic acid [2-(2-ethoxymethyl-pyrrolidin-1-yl)-benzothiazol-5-yl]-amide], the 50% inhibitory concentration (IC50) was 9510 nM.

As to `COC1CCCN(c2nc3cc(NC(=O)c4ccc5c(c4)CCO5)ccc3s2)C1` (stereo not shown) [Example 108, 2,3-Dihydro-benzofuran-5-carboxylic acid [2-(3-methoxy-piperidin-1-yl)-benzothiazol-5-yl]-amide], the IC50 was 2540 nM.

With `O=C(Nc1ccc2sc(N3CC(O)C3)nc2c1)c1ccc2c(c1)CCO2` [Example 109, 2,3-Dihydro-benzofuran-5-carboxylic acid [2-(3-hydroxy-azetidin-1-yl)-benzothiazol-5-yl]-amide], the IC50 was found to be 1780 nM.

What is called IC50 is the concentration that inhibits the measured activity by half.
